# Experimental data: ChEMBL document CHEMBL1154642, “Synthesis and biological evaluation of heterocyclic ring-substituted maslinic acid derivatives as novel inhibitors of protein tyrosine phosphatase 1B” (Bioorg Med Chem Lett, 2009)
# Legend:
# Homo sapiens = organism: Homo sapiens; assay: Selectivity, ratio of IC50 for GST-tagged human TCPTP to IC50 for GST-tagged human PTP 1B
# [1] = molecular target: T1, Tyrosine-protein phosphatase non-receptor type 2 (Homo sapiens, UniProt P17706); assay: Inhibition of GST-tagged human TCPTP
# T1 sequence (P17706 whole entry): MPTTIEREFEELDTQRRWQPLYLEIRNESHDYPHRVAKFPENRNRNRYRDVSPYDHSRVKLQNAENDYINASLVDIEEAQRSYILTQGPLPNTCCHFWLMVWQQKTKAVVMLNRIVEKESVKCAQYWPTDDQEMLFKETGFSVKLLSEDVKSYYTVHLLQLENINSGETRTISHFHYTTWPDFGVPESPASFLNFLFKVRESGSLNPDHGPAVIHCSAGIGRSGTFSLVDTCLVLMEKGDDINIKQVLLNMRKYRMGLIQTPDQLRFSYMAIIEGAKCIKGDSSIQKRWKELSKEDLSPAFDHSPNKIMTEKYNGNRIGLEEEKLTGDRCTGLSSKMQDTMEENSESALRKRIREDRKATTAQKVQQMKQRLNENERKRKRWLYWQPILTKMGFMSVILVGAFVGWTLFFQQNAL
# [2] = molecular target: T2, Tyrosine-protein phosphatase non-receptor type 1 (Homo sapiens, UniProt P18031); assay: Inhibition of GST-tagged human PTP 1B
# T2 sequence (P18031 whole entry): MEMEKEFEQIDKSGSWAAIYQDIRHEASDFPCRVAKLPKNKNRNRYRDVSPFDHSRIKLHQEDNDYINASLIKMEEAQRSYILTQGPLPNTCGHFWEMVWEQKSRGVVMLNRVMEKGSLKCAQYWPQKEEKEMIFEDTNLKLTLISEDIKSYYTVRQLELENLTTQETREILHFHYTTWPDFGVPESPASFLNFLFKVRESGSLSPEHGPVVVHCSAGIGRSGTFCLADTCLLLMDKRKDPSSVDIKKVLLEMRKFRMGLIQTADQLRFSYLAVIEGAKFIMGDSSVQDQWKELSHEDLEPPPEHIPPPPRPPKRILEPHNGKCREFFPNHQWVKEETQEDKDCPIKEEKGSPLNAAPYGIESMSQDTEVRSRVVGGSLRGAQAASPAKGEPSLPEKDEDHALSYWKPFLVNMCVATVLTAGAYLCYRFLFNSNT
# [3] = molecular target: Receptor-type tyrosine-protein phosphatase F (Homo sapiens, UniProt P10586); assay: Inhibition of GST-tagged human LAR
# Chain of Receptor-type tyrosine-protein phosphatase F (P10586 whole entry): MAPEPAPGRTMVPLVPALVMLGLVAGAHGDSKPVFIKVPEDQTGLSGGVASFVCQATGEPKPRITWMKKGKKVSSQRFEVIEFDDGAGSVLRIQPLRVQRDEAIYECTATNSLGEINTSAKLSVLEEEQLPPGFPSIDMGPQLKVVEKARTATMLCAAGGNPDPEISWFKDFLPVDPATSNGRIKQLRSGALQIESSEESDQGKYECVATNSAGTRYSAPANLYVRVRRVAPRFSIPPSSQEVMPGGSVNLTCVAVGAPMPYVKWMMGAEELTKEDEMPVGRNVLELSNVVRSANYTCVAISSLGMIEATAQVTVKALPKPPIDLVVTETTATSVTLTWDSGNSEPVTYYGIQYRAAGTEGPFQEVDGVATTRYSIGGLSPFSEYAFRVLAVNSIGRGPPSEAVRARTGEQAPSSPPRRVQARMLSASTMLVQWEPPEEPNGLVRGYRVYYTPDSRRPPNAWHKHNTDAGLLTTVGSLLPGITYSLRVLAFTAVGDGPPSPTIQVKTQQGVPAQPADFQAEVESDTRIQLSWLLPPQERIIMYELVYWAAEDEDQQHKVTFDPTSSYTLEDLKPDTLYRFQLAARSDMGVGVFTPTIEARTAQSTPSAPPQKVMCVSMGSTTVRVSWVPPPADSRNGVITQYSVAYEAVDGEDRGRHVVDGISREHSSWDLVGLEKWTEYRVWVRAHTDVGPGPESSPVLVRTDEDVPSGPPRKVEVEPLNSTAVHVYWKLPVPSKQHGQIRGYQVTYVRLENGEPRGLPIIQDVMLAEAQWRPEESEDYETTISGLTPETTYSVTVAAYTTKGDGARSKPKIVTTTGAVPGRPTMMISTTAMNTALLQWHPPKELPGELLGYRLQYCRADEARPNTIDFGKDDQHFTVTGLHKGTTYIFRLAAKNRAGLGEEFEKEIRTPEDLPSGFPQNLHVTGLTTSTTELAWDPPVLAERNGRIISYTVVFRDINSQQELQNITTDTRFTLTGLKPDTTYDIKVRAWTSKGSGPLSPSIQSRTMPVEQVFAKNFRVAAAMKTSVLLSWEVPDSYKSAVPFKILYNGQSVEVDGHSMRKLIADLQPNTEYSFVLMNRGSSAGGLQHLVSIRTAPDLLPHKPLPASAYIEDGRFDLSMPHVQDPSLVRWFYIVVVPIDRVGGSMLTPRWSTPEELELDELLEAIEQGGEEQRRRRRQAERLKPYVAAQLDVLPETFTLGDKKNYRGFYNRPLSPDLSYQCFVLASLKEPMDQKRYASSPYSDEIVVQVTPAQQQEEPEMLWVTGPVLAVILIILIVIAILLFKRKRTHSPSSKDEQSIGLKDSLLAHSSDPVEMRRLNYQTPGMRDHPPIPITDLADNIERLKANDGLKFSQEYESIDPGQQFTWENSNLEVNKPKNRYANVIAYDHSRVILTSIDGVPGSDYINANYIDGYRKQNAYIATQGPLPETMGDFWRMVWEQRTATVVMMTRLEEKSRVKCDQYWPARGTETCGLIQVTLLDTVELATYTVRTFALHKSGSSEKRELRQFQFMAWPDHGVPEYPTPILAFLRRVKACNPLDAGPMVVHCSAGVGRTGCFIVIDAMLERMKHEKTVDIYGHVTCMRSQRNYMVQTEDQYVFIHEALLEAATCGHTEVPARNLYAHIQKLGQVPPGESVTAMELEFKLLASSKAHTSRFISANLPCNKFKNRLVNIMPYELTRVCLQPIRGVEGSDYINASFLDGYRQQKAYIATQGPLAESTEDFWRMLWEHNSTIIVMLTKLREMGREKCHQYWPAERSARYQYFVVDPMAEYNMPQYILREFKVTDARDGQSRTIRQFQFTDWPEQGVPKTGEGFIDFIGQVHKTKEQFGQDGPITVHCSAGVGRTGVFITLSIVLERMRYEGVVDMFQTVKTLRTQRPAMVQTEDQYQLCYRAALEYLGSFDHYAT
# [4] = molecular target: T3, Tyrosine-protein phosphatase non-receptor type 11 (Homo sapiens, UniProt Q06124); assay: Inhibition of GST-tagged human SHP2
# T3 sequence (Q06124 whole entry): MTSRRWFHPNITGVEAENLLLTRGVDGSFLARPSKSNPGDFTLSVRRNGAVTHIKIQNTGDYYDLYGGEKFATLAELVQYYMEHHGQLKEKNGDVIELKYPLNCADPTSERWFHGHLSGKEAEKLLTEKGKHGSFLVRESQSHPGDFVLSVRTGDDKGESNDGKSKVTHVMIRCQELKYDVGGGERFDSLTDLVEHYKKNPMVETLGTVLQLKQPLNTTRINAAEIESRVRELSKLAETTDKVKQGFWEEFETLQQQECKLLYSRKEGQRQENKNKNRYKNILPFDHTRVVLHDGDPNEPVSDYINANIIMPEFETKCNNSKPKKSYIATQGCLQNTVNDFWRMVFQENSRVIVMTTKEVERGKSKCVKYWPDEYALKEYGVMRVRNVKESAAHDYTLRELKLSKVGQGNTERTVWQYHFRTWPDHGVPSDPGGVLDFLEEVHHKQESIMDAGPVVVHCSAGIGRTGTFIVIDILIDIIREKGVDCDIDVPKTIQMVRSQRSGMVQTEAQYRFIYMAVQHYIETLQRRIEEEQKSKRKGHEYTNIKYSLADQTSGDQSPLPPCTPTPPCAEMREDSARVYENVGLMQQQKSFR
# [5] = molecular target: Tyrosine-protein phosphatase non-receptor type 6 (Homo sapiens, UniProt P29350); assay: Inhibition of GST-tagged human SHP1
# Chain of Tyrosine-protein phosphatase non-receptor type 6 (P29350 whole entry): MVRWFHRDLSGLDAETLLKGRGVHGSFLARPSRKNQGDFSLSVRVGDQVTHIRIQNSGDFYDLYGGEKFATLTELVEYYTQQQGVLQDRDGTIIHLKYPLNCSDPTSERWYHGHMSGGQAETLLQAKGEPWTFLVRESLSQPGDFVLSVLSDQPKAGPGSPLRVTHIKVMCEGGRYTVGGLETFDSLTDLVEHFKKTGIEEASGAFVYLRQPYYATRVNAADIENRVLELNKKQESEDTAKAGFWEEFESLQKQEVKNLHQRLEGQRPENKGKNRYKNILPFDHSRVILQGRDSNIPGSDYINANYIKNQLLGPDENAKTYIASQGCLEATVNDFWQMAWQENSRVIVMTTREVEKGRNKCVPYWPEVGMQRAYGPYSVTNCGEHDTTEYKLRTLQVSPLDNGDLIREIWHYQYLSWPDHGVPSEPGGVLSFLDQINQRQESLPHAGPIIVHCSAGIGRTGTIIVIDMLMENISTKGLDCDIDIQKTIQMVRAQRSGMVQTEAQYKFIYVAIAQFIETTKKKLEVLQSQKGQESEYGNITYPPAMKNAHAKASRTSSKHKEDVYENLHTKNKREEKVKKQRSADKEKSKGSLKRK
# [6] = Inhibition of glycogen phosphorylase
Ratio IC50 (Homo sapiens),IC50 [1],IC50 [2],IC50 [3],IC50 [4],IC50 [5],IC50 [6],SMILES
4.6,8.31 µM,1.79 µM,> 40 µM,> 40 µM,> 40 µM,,CC1(C)CC[C@]2(C(=O)O)CC[C@]3(C)C(=CC[C@@H]4[C@@]5(C)Cc6nccnc6C(C)(C)[C@@H]5CC[C@]43C)[C@@H]2C1
2.7,3.8 µM,1.39 µM,> 40 µM,> 40 µM,> 40 µM,,CC1(C)CC[C@]2(C(=O)O)CC[C@]3(C)C(=CC[C@@H]4[C@@]5(C)Cc6cnn(-c7ccccc7)c6C(C)(C)[C@@H]5CC[C@]43C)[C@@H]2C1
3.1,5.51 µM,1.78 µM,,,,,CC1(C)CC[C@]2(C(=O)O)CC[C@]3(C)C(=CC[C@@H]4[C@@]5(C)Cc6cnc(N)nc6C(C)(C)[C@@H]5CC[C@]43C)[C@@H]2C1
2.6,1.6 µM,0.61 µM,,,,,CC1(C)CC[C@]2(C(=O)O)CC[C@]3(C)C(=CC[C@@H]4[C@@]5(C)Cc6c([nH]c7ccccc67)C(C)(C)[C@@H]5CC[C@]43C)[C@@H]2C1
2.5,6.5 µM,2.61 µM,,,,,Cc1ncc2c(n1)C(C)(C)[C@@H]1CC[C@]3(C)[C@H](CC=C4[C@@H]5CC(C)(C)CC[C@]5(C(=O)O)CC[C@]43C)[C@@]1(C)C2
3.4,6.44 µM,1.92 µM,> 40 µM,> 40 µM,> 40 µM,,CC1(C)CC[C@]2(C(=O)O)CC[C@]3(C)C(=CC[C@@H]4[C@@]5(C)Cc6sc(N)nc6C(C)(C)[C@@H]5CC[C@]43C)[C@@H]2C1
4.1,5.88 µM,1.43 µM,> 40 µM,> 40 µM,> 40 µM,,CC1(C)CC[C@]2(C(=O)O)CC[C@]3(C)C(=CC[C@@H]4[C@@]5(C)Cc6nc7ccccc7nc6C(C)(C)[C@@H]5CC[C@]43C)[C@@H]2C1
3,8.19 µM,2.73 µM,> 40 µM,> 40 µM,> 40 µM,,CC1(C)CC[C@]2(C(=O)O)CC[C@]3(C)C(=CC[C@@H]4[C@@]5(C)Cc6cncnc6C(C)(C)[C@@H]5CC[C@]43C)[C@@H]2C1

# More lines, now with the values behind:
SMILES,Ratio IC50 (Homo sapiens),IC50 [1],IC50 [2],IC50 [3],IC50 [4],IC50 [5],IC50 [6]
CCCCCC(=O)n1ncc2c1C(C)(C)[C@@H]1CC[C@]3(C)[C@H](CC=C4[C@@H]5CC(C)(C)CC[C@]5(C(=O)O)CC[C@]43C)[C@@]1(C)C2,3.2,5.56 µM,1.75 µM,,,,
CC1(C)CC[C@]2(C(=O)O)CC[C@]3(C)C(=CC[C@@H]4[C@@]5(C)C[C@@H](O)[C@H](O)C(C)(C)[C@@H]5CC[C@]43C)[C@@H]2C1 [MASLINIC ACID],3.3,19.5 µM,5.93 µM,> 40 µM,> 40 µM,> 40 µM,28 µM
O=C(O)C(=O)c1ccc(OCc2ccc(COc3ccc(C(=O)C(=O)O)cc3)cc2)cc1,1.6,6.24 µM,3.89 µM,,,,
CC(=O)n1ncc2c1C(C)(C)[C@@H]1CC[C@]3(C)[C@H](CC=C4[C@@H]5CC(C)(C)CC[C@]5(C(=O)O)CC[C@]43C)[C@@]1(C)C2,3.3,4.93 µM,1.48 µM,,,,
CNc1ncc2c(n1)C(C)(C)[C@@H]1CC[C@]3(C)[C@H](CC=C4[C@@H]5CC(C)(C)CC[C@]5(C(=O)O)CC[C@]43C)[C@@]1(C)C2,,,5.44 µM,,,,
CC1(C)CC[C@]2(C(=O)O)CC[C@]3(C)C(=CC[C@@H]4[C@@]5(C)Cc6cnn(C(=O)c7ccncc7)c6C(C)(C)[C@@H]5CC[C@]43C)[C@@H]2C1,4.5,3.62 µM,0.81 µM,,,,
CC1(C)CC[C@]2(C(=O)O)CC[C@]3(C)C(=CC[C@@H]4[C@@]5(C)C[C@@H](O)[C@@H](O)C(C)(C)[C@@H]5CC[C@]43C)[C@@H]2C1,,,14.3 µM,,,,
CC1(C)CC[C@]2(C(=O)O)CC[C@]3(C)C(=CC[C@@H]4[C@@]5(C)C[C@H](O)[C@H](O)C(C)(C)[C@@H]5CC[C@]43C)[C@@H]2C1 [AUGUSTIC ACID],,,4.93 µM,,,,
CC1(C)CC[C@]2(C(=O)O)CC[C@]3(C)C(=CC[C@@H]4[C@@]5(C)Cc6cnoc6C(C)(C)[C@@H]5CC[C@]43C)[C@@H]2C1,3.3,8.44 µM,2.6 µM,> 40 µM,> 40 µM,> 40 µM,
CC1(C)CC[C@]2(C(=O)O)CC[C@]3(C)C(=CC[C@@H]4[C@@]5(C)Cc6cnn(C(=O)c7cccnc7)c6C(C)(C)[C@@H]5CC[C@]43C)[C@@H]2C1,6.9,4.39 µM,0.64 µM,,,,
CC1(C)CC[C@]2(C(=O)O)CC[C@]3(C)C(=CC[C@@H]4[C@@]5(C)Cc6cn[nH]c6C(C)(C)[C@@H]5CC[C@]43C)[C@@H]2C1,3.6,5.99 µM,1.65 µM,> 40 µM,> 40 µM,> 40 µM,
